The text below walks through data of PubChem BioAssay (NCI).

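Briefly, cells in 96-well plates were exposed to five compound concentrations for 48 h, and endpoints were estimated by linear interpolation. At the GI50, growth is halved. TGI is the concentration that stops growth completely.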 Bounds are passed on as bounds.

What all share (assay): NCI anticancer screen, dose series, 48 h
Assay [1] concerns HL-60(TB) leukemia.
In assay [2] the test system is MOLT-4 leukemia.
Assay [3] relates to CCRF-CEM leukemia.
For assay [4], the system named is U251 CNS.
Assay [5] has as its system HCT-15 colon.
In assay [6] the test system is HCT-116 colon.
For assay [7], the system named is MCF7 breast.
Assay [8] has as its system OVCAR-5 ovarian.
For assay [9], the system named is NCI-H460 lung.
Assay [10] concerns CAKI-1 renal.

For `CCC(C)NC1=NCC(C)S1` (stereo not drawn), the TGI in assay [1], in assay [2], in [3], in [4], in assay [5] and in assay [6] was greater than 100 µM throughout. In addition, the TGI in [7], in assay [8], in assay [9] and in assay [10] was greater than 100 µM throughout.

Regarding `CCOP(=O)(OCC)C(c1ccc(F)cc1)N(C(=O)NC(F)(F)F)c1cccc(C(F)(F)F)c1` (stereo not drawn), the TGI in assay [1], in assay [2], in assay [3], in assay [4], in [5] and in assay [6] was greater than 100 µM each time. For the same molecule, the TGI in [7], in [8], in assay [9] and in [10] was greater than 100 µM throughout.

For the molecule `C=C(C)[C@H]1Cc2c(ccc3c2O[C@@H]2COc4cc(OC)c(OC)cc4[C@@H]2C3=O)O1`, the TGI was 0.381 µM in assay [1]; 45.2 µM in assay [2]; 71.1 µM in assay [3]; 30.9 µM in assay [4]; 40.4 µM in assay [5]; 23.5 µM in [6]. Besides, the TGI in assay [7] was greater than 84.2 µM; in assay [8], greater than 100 µM; in [9] it was 15.8 µM; in assay [10] it was 63.8 µM.

With `COc1ccccc1CNCCCN1C(=O)c2ccc3c4c(ccc(c24)C1=O)C(=O)N(CCCNCCNCCCN)C3=O`, the GI50 was 2.54 µM in assay [1]; 1.73 µM in assay [2]; 3.17 µM in assay [3]; 1.17 µM in assay [4]; 12.2 µM in assay [5]; 0.717 µM in assay [6]. Moreover, the GI50 was 0.422 µM in assay [7], 5.24 µM in assay [8], 2.08 µM in assay [9] and 21.7 µM in assay [10]. The TGI in assay [1] worked out at 6.34 µM; in assay [2] it was 5.81 µM; in [3], 56.8 µM; in assay [4], 10.1 µM; in assay [5], 26.8 µM; in assay [6] it was 3.04 µM. Also, the TGI in assay [7] is 2.22 µM; in assay [8], 19.8 µM; in assay [9], 6.47 µM; in assay [10], greater than 100 µM.

Turning to `CCOC(=O)CNC(=O)N(CC)C12CC3CC(CC(C3)C1)C2`, the TGI in assay [1] stood at 314 µM; in [2], 322 µM; in assay [3], 388 µM; in assay [4] it was 239 µM; in assay [5], 228 µM; in [6] it was 297 µM. Moreover, the TGI is 444 µM in assay [7], 369 µM in assay [8], 406 µM in assay [9] and 313 µM in [10].

In the case of `CC1CC2=C(S(=O)(=O)c3ccccc3)CC(S(=O)(=O)c3ccccc3)(S(=O)(=O)c3ccccc3)CC21` (stereo not drawn), the TGI in [1], in assay [2], in [3], in assay [4], in [5] and in assay [6] was greater than 100 µM in each case. Further, the TGI in assay [8] and in assay [9] was greater than 100 µM each time.

`CCOC(=O)Cn1c(=O)ccn(COCCO)c1=O`: the TGI in assay [1], in assay [2], in assay [3], in assay [4], in assay [5] and in assay [7] was greater than 100 µM throughout. Also, the TGI in assay [8], in [9] and in [10] was greater than 100 µM each time.

Turning to `COCc1nc2c(OC)c(-c3nc4nc(N5CCN(C)CC5)ccc4[nH]3)cc(OC)c2n1C`, the TGI in assay [1] is 36.2 µM; in assay [2], 49.6 µM; in assay [3] it was 45.6 µM; in [4] it was 61.9 µM; in [5] it was greater than 100 µM; in assay [6], greater than 100 µM. Moreover, the TGI in assay [8] is greater than 100 µM; in assay [9], 78.8 µM; in assay [10], greater than 100 µM.

With `NNC(=O)c1c(SCc2ccccc2)nc2c3ccccc3ccn12`, the TGI in assay [1] is 29.4 µM; in [2], 41.3 µM; in assay [3], 22.1 µM; in assay [4], greater than 100 µM; in assay [5], 41.2 µM; in assay [7], greater than 100 µM. Moreover, the TGI in assay [8] amounted to 54.8 µM; in [9], 28 µM; in assay [10] it was 87.9 µM.

In the case of `C/C(=N/NC(N)=S)c1ccc[nH]1`, the TGI in [1], in [2], in assay [3], in [4], in assay [5] and in [6] was greater than 100 µM throughout. In addition, the TGI in [7], in assay [8], in assay [9] and in assay [10] was greater than 100 µM in each case.

On to `COc1ccc(S(=O)(=O)c2ccccc2[N+](=O)[O-])cc1`, for which the TGI in [1], in assay [2], in assay [3], in assay [4], in [5] and in [6] was greater than 100 µM each time. In addition, the TGI in assay [8] and in assay [9] was greater than 100 µM each time.

Consider `COc1cc2oc(-c3ccc(O)cc3)c(OC)c(=O)c2c(O)c1OC`, for which the GI50 in [2] is 27.4 µM; in assay [3] it was 15.2 µM; in [5], 23.3 µM; in assay [6], 34.8 µM; in assay [7] it was 51.4 µM; in [8], greater than 100 µM. In addition, the values for the GI50 in assay [9] and in assay [10] were 41.1 µM and 45.1 µM, respectively. Besides, the TGI in assay [2], in assay [3], in assay [4], in assay [5], in assay [6] and in [7] was greater than 100 µM throughout. Moreover, the TGI in assay [8], in [9] and in assay [10] was greater than 100 µM throughout.

As to `CC(=O)Nc1ccc(/C=C/c2ccc(NC(=O)Nc3ccc(/C=C/c4ccc(NC(C)=O)cc4S(=O)(=O)O)c(S(=O)(=O)O)c3)cc2S(=O)(=O)O)c(S(=O)(=O)O)c1`, the TGI in assay [1], in assay [2], in [3], in [4], in [5] and in assay [6] was greater than 100 µM each time. The TGI in assay [7], in [8] and in assay [9] was greater than 100 µM throughout.

As for `COCCCNc1nc(N)c(C#N)c(C#N)c1C#N`, the TGI was greater than 10 µM in assay [1]; greater than 10 µM in assay [2]; 6.67 µM in assay [3]; greater than 10 µM in assay [4]; greater than 10 µM in assay [5]; greater than 10 µM in assay [6]. Further, the TGI in [7], in [8], in assay [9] and in [10] was greater than 10 µM in each case.

Turning to `CCOC(=O)c1ccc(N[C@@H]2c3cc4c(cc3C(c3cc(OC)c(O)c(OC)c3)[C@H]3C(=O)OCC32)OCO4)cc1O` (stereo partly drawn), the TGI is 5.66 µM in assay [1]; 1.21 µM in assay [2]; greater than 100 µM in assay [3]; 2.54 µM in assay [5]; 8.26 µM in [6]; greater than 79.3 µM in [7]. Further, the TGI in [8] is greater than 100 µM; in [9], 0.822 µM; in assay [10], 3.26 µM.
